From ChEMBL document CHEMBL3885861, “Open TG-GATES”

Organism: Rattus norvegicus
Test: Open TG-GATES - Regimen: Daily Repeat
Format: toxicity, organism-based, Sprague-Dawley
Set-up: regimen Daily Repeat, gender Male, age 6 weeks
Details: in vivo, po, route gavage; for APTT / Bas / Eos / Fbg / Ht / Lym / MCH / MCHC / MCV / Mono / Neu / PT / Plat / RBC / Ret / WBC: tissue Blood; for KIDNEY_L / KIDNEY_R / KIDNEY_TOTAL: tissue Kidney; for LIVER: tissue Liver; for ALP / ALT / AST / BUN / CRE / Ca / Cl / DBIL / GLC / IP / K / LDH / Na / PL / RALB / TBIL / TC / TG / TP / gamma-GTP: tissue Plasma
[1] = 0 mg/kg, 72 h, dose level Control, time 3 day
[2] = 0 mg/kg, […], dose level Control, time 7 day
[3] = 0 mg/kg, […], dose level Control, time 14 day
[4] = 0 mg/kg, […], dose level Control, time 28 day
[5] = 10 mg/kg, 72 h, dose level Low, time 3 day
[6] = 10 mg/kg, […], dose level Low, time 7 day
[7] = 10 mg/kg, […], dose level Low, time 14 day
[8] = 10 mg/kg, […], dose level Low, time 28 day

Cc1cccc(Nc2cc(Cl)nc(SCC(=O)O)n2)c1C [PIRINIXIC ACID]
TERMINAL_BW [1]: 233.5 g
APTT [1]: 16.4 s
Bas [1]: 0%
Eos [1]: 1.2%
Fbg [1]: 285 mg/dL
Ht [1]: 39.4%
Lym [1]: 75.2%
MCH [1]: 22.2 pg
MCHC [1]: 34.4%
MCV [1]: 64.7 fL
Mono [1]: 2.8%
Neu [1]: 20.2%
PT [1]: 12.3 s
Plat [1]: 109.1 x10_4/uL
RBC [1]: 609.4 x10_4/ul
Ret [1]: 7%
WBC [1]: 85.4 x10_2/uL
KIDNEY_L [1]: 1 g
KIDNEY_R [1]: 1 g
KIDNEY_TOTAL [1]: 1.9 g
LIVER [1]: 10.9 g
ALP [1]: 1563.4 IU/L
ALT [1]: 50 IU/L
AST [1]: 77 IU/L
BUN [1]: 15.8 mg/dL
CRE [1]: 0.2 mg/dL
Ca [1]: 10.8 mg/dL
Cl [1]: 105.4 meq/L
DBIL [1]: 0.024 mg/dL
GLC [1]: 201.2 mg/dL
IP [1]: 8.2 mg/dL
K [1]: 3.8 meq/L
LDH [1]: 80.4 IU/L
Na [1]: 143 meq/L
PL [1]: 155 mg/dL
RALB [1]: 2.6 g/dL
TBIL [1]: 0.032 mg/dL
TC [1]: 79.6 mg/dL
TG [1]: 92.8 mg/dL
TP [1]: 5.5 g/dL
gamma-GTP [1]: 1.6 IU/L
TERMINAL_BW [2]: 265.8 g
TERMINAL_BW [3]: 320.3 g
TERMINAL_BW [4]: 387.5 g
APTT [2]: 16.6 s
Bas [2]: 0%
Eos [2]: 0.4%
Fbg [2]: 312.6 mg/dL
Ht [2]: 40.4%
Lym [2]: 83.4%
MCH [2]: 21.7 pg
MCHC [2]: 34.7%
MCV [2]: 62.3 fL
Mono [2]: 2.2%
Neu [2]: 13.8%
PT [2]: 12.3 s
Plat [2]: 127.6 x10_4/uL
RBC [2]: 648.6 x10_4/ul
Ret [2]: 5.5%
WBC [2]: 89.6 x10_2/uL
APTT [3]: 15.5 s
Bas [3]: 0%
Eos [3]: 0.8%
Fbg [3]: 324.2 mg/dL
Ht [3]: 41.1%
Lym [3]: 77.6%
MCH [3]: 20.2 pg
MCHC [3]: 35.2%
MCV [3]: 57.3 fL
Mono [3]: 2.4%
Neu [3]: 18.6%
PT [3]: 12.4 s
Plat [3]: 119.6 x10_4/uL
RBC [3]: 716.8 x10_4/ul
Ret [3]: 4.1%
WBC [3]: 101.8 x10_2/uL
APTT [4]: 17.7 s
Bas [4]: 0%
Eos [4]: 1.2%
Fbg [4]: 284.6 mg/dL
Ht [4]: 44.2%
Lym [4]: 75%
MCH [4]: 19.8 pg
MCHC [4]: 35.6%
MCV [4]: 55.5 fL
Mono [4]: 2.4%
Neu [4]: 20.6%
PT [4]: 12.3 s
Plat [4]: 100.6 x10_4/uL
RBC [4]: 796.8 x10_4/ul
Ret [4]: 2.3%
WBC [4]: 82.2 x10_2/uL
KIDNEY_L [2]: 1.1 g
KIDNEY_R [2]: 1 g
KIDNEY_TOTAL [2]: 2.1 g
KIDNEY_L [3]: 1.2 g
KIDNEY_R [3]: 1.2 g
KIDNEY_TOTAL [3]: 2.5 g
KIDNEY_L [4]: 1.4 g
KIDNEY_R [4]: 1.3 g
KIDNEY_TOTAL [4]: 2.7 g
LIVER [2]: 12.4 g
LIVER [3]: 14.7 g
LIVER [4]: 15.5 g
ALP [2]: 1820.8 IU/L
ALT [2]: 48.8 IU/L
AST [2]: 67.6 IU/L
BUN [2]: 19.4 mg/dL
CRE [2]: 0.2 mg/dL
Ca [2]: 11 mg/dL
Cl [2]: 105 meq/L
DBIL [2]: 0.02 mg/dL
GLC [2]: 205.6 mg/dL
IP [2]: 7.1 mg/dL
K [2]: 4 meq/L
LDH [2]: 80 IU/L
Na [2]: 142.4 meq/L
PL [2]: 164.2 mg/dL
RALB [2]: 2.7 g/dL
TBIL [2]: 0.036 mg/dL
TC [2]: 80.8 mg/dL
TG [2]: 128.4 mg/dL
TP [2]: 5.9 g/dL
gamma-GTP [2]: 1 IU/L
ALP [3]: 1141.6 IU/L
ALT [3]: 41.2 IU/L
AST [3]: 65.8 IU/L
BUN [3]: 16 mg/dL
CRE [3]: 0.2 mg/dL
Ca [3]: 10.6 mg/dL
Cl [3]: 105.2 meq/L
DBIL [3]: 0.016 mg/dL
GLC [3]: 202.4 mg/dL
IP [3]: 7.1 mg/dL
K [3]: 3.8 meq/L
LDH [3]: 78.8 IU/L
Na [3]: 143.4 meq/L
PL [3]: 139.6 mg/dL
RALB [3]: 2.8 g/dL
TBIL [3]: 0.03 mg/dL
TC [3]: 69 mg/dL
TG [3]: 117.4 mg/dL
TP [3]: 6 g/dL
gamma-GTP [3]: 1.2 IU/L
ALP [4]: 955.2 IU/L
ALT [4]: 36.2 IU/L
AST [4]: 59.4 IU/L
BUN [4]: 14 mg/dL
CRE [4]: 0.2 mg/dL
Ca [4]: 10.7 mg/dL
Cl [4]: 106.6 meq/L
DBIL [4]: 0.018 mg/dL
GLC [4]: 199 mg/dL
IP [4]: 6.5 mg/dL
K [4]: 3.5 meq/L
LDH [4]: 48.8 IU/L
Na [4]: 144.2 meq/L
PL [4]: 139.6 mg/dL
RALB [4]: 2.8 g/dL
TBIL [4]: 0.064 mg/dL
TC [4]: 75.8 mg/dL
TG [4]: 90.4 mg/dL
TP [4]: 6.4 g/dL
gamma-GTP [4]: 1 IU/L
TERMINAL_BW [5]: 232.6 g
APTT [5]: 15.8 s
Bas [5]: 0%
Eos [5]: 1%
Fbg [5]: 215.2 mg/dL
Ht [5]: 39%
Lym [5]: 76.6%
MCH [5]: 21.6 pg
MCHC [5]: 34%
MCV [5]: 63.6 fL
Mono [5]: 2.6%
Neu [5]: 19.2%
PT [5]: 12.5 s
Plat [5]: 111.3 x10_4/uL
RBC [5]: 612.8 x10_4/ul
Ret [5]: 6.1%
WBC [5]: 76.7 x10_2/uL
KIDNEY_L [5]: 1 g
KIDNEY_R [5]: 1 g
KIDNEY_TOTAL [5]: 1.9 g
LIVER [5]: 14.4 g
ALP [5]: 2039.8 IU/L
ALT [5]: 60.6 IU/L
AST [5]: 81.6 IU/L
BUN [5]: 14.6 mg/dL
CRE [5]: 0.2 mg/dL
Ca [5]: 10.8 mg/dL
Cl [5]: 106 meq/L
DBIL [5]: 0.02 mg/dL
GLC [5]: 210 mg/dL
IP [5]: 7.5 mg/dL
K [5]: 4.1 meq/L
LDH [5]: 90 IU/L
Na [5]: 143.8 meq/L
PL [5]: 111.8 mg/dL
RALB [5]: 2.7 g/dL
TBIL [5]: 0.03 mg/dL
TC [5]: 55 mg/dL
TG [5]: 31.2 mg/dL
TP [5]: 5.4 g/dL
gamma-GTP [5]: 1.2 IU/L
TERMINAL_BW [6]: 276.5 g
TERMINAL_BW [7]: 313.7 g
TERMINAL_BW [8]: 373.2 g
APTT [6]: 17.8 s
Bas [6]: 0%
Eos [6]: 1%
Fbg [6]: 262.8 mg/dL
Ht [6]: 38.4%
Lym [6]: 76.4%
MCH [6]: 21.6 pg
MCHC [6]: 34.9%
MCV [6]: 61.8 fL
Mono [6]: 3.2%
Neu [6]: 19.2%
PT [6]: 12.6 s
Plat [6]: 130.2 x10_4/uL
RBC [6]: 621.6 x10_4/ul
Ret [6]: 5.9%
WBC [6]: 93.9 x10_2/uL
APTT [7]: 17.3 s
Bas [7]: 0.2%
Eos [7]: 1%
Fbg [7]: 262.8 mg/dL
Ht [7]: 38.9%
Lym [7]: 78.8%
MCH [7]: 20.7 pg
MCHC [7]: 35.3%
MCV [7]: 58.6 fL
Mono [7]: 2.8%
Neu [7]: 16%
PT [7]: 12.5 s
Plat [7]: 132.4 x10_4/uL
RBC [7]: 664.6 x10_4/ul
Ret [7]: 4.7%
WBC [7]: 110.5 x10_2/uL
APTT [8]: 16.3 s
Bas [8]: 0%
Eos [8]: 1%
Fbg [8]: 251.2 mg/dL
Ht [8]: 39.5%
Lym [8]: 76.8%
MCH [8]: 19.7 pg
MCHC [8]: 35.9%
MCV [8]: 54.9 fL
Mono [8]: 3.6%
Neu [8]: 18%
PT [8]: 12.2 s
Plat [8]: 118 x10_4/uL
RBC [8]: 720.4 x10_4/ul
Ret [8]: 2.7%
WBC [8]: 97.4 x10_2/uL
KIDNEY_L [6]: 1.2 g
KIDNEY_R [6]: 1.1 g
KIDNEY_TOTAL [6]: 2.3 g
KIDNEY_L [7]: 1.3 g
KIDNEY_R [7]: 1.3 g
KIDNEY_TOTAL [7]: 2.6 g
KIDNEY_L [8]: 1.4 g
KIDNEY_R [8]: 1.4 g
KIDNEY_TOTAL [8]: 2.9 g
LIVER [6]: 20.3 g
LIVER [7]: 22.8 g
LIVER [8]: 26.4 g
ALP [6]: 1837.8 IU/L
ALT [6]: 49.2 IU/L
AST [6]: 65.4 IU/L
BUN [6]: 18.4 mg/dL
CRE [6]: 0.2 mg/dL
Ca [6]: 11.2 mg/dL
Cl [6]: 102.4 meq/L
DBIL [6]: 0.014 mg/dL
GLC [6]: 202.6 mg/dL
IP [6]: 7.2 mg/dL
K [6]: 4.2 meq/L
LDH [6]: 98.8 IU/L
Na [6]: 142.2 meq/L
PL [6]: 148.6 mg/dL
RALB [6]: 3 g/dL
TBIL [6]: 0.026 mg/dL
TC [6]: 77.6 mg/dL
TG [6]: 60.4 mg/dL
TP [6]: 6.2 g/dL
gamma-GTP [6]: 1 IU/L
ALP [7]: 1550.8 IU/L
ALT [7]: 45 IU/L
AST [7]: 64 IU/L
BUN [7]: 17.4 mg/dL
CRE [7]: 0.2 mg/dL
Ca [7]: 10.5 mg/dL
Cl [7]: 103.2 meq/L
DBIL [7]: 0.016 mg/dL
GLC [7]: 206.8 mg/dL
IP [7]: 7.4 mg/dL
K [7]: 3.8 meq/L
LDH [7]: 97.2 IU/L
Na [7]: 142.2 meq/L
PL [7]: 144.2 mg/dL
RALB [7]: 2.9 g/dL
TBIL [7]: 0.032 mg/dL
TC [7]: 67.2 mg/dL
TG [7]: 53.6 mg/dL
TP [7]: 6.2 g/dL
gamma-GTP [7]: 1.2 IU/L
ALP [8]: 1413.8 IU/L
ALT [8]: 50.4 IU/L
AST [8]: 63.6 IU/L
BUN [8]: 17.6 mg/dL
CRE [8]: 0.2 mg/dL
Ca [8]: 11 mg/dL
Cl [8]: 103.8 meq/L
DBIL [8]: 0.014 mg/dL
GLC [8]: 188.6 mg/dL
IP [8]: 7.4 mg/dL
K [8]: 3.7 meq/L
LDH [8]: 115 IU/L
Na [8]: 143 meq/L
PL [8]: 155.2 mg/dL
RALB [8]: 3.1 g/dL
TBIL [8]: 0.048 mg/dL
TC [8]: 79.4 mg/dL
TG [8]: 63.4 mg/dL
TP [8]: 6.8 g/dL
